Data on 13 molecules can be found in publication PMC6163091 (Chemical biology & drug design, 2018).

Where two headings read alike, the source gives them in different places. A value given as a limit tells only on which side of the number the result lay.

In test [1] the target is guanosine/adenosine/cytidine nucleoside hydrolase (GACNH) (Trichomonas vaginalis, UniProt A2DN71). The test is described as follows: 1H NMR-based activity assay of GACNH. It is filed as biochemical. To be noted: for inhibition at 250 µM: read-out: % inhibition at 250 μM against GACNH.
Test [2] addresses T1, adenosine/guanosine nucleoside hydrolase (AGNH) (Trichomonas vaginalis, UniProt A2EYV3).
T1 sequence (A2EYV3 1-304): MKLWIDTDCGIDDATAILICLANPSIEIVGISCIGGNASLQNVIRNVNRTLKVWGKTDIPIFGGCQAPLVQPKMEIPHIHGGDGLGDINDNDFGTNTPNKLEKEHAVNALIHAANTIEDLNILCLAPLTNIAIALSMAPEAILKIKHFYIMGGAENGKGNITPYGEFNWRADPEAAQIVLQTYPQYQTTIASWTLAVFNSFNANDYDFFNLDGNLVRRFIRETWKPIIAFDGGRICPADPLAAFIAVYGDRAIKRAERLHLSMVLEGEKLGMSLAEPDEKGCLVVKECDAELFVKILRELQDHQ
The test is described as follows: 1H NMR activity assay of AGNH. Format: biochemical. The settings on record: for inhibition at 250 µM: read-out: % inhibition at 250 μM against AGNH.

The test system of test [3] is uridine nucleoside hydrolase (UNH). The test is described as follows: 19F NMR activity assay of UNH. It is filed as biochemical, Trichomonas vaginalis. The settings on record: 250 μM compound; NM = not measurable (percent inhibition < 10%).
Test [4] shares this test system. The settings on record: NMR screen of NIH Clinical Collection; cited from earlier work.
Setting [5] is: IC50 (μM) with Triton, GACNH, in the presence of 0.01% Triton X-100.
Setting [6] is: IC50 against GACNH, ribavirin analogs, Table 2.
The mark [7] stands for this setting: carboxamidine in place of carboxamide.

As to `O=C1c2c(O)cc(O)cc2O[C@H](c2ccc(O)c(O)c2)[C@H]1O` (racemic) [(±)-Taxifolin], the IC50 in test [1] (read-out: IC50 (μM) with Triton, GACNH, in the presence of 0.01% Triton X-100) is 41.6 ± 20.4 µM.

Regarding `NC(=O)c1ncn([C@@H]2O[C@H](CO)[C@@H](O)[C@H]2O)c1N` [Acadesine], the inhibition at 250 µM was 70% in test [1] and < 10% in test [2]. The “% inhibition at 250 μM against UNH” value in test [3] stood at 51%.

As for `CCc1oc2ccccc2c1C(=O)c1cc(Br)c(O)c(Br)c1` [Benzbromarone], the IC50 in test [1] (setting [5]) stood at 134 ± 32.7 µM.

With `OC[C@H]1O[C@@H](n2cnc3c(NC4CCCC4)nc(Cl)nc32)[C@H](O)[C@@H]1O` [CCPA, 2-chloro-N(6)-cyclopentyladenosine], in test [1] (setting [5]), the IC50 stood at 14 ± 5.8 µM.

On to `O=c1c(O[C@@H]2O[C@H](CO)[C@H](O)[C@H](O)[C@H]2O)c(-c2ccc(O)c(O)c2)oc2cc(O)cc(O)c12` [Hyperoside], for which the IC50 in test [1] (setting [5]) turned out to be 22.6 ± 7.6 µM.

`COc1ccc(-c2oc3c(CC=C(C)C)c(O[C@@H]4O[C@H](CO)[C@@H](O)[C@H](O)[C@H]4O)cc(O)c3c(=O)c2O[C@@H]2O[C@@H](C)[C@H](O)[C@@H](O)[C@H]2O)cc1` [Icariin]: the IC50 in test [1] (setting [5]) was found to be 5 ± 1.7 µM.

For `O=c1c(O[C@@H]2O[C@H](CO)[C@@H](O)[C@H](O)[C@H]2O)c(-c2ccc(O)c(O)c2)oc2cc(O)cc(O)c12` [Isoquercitrin], the IC50 in test [1] (setting [5]) was 2.2 ± 0.6 µM.

As to `NC(=O)c1ncn([C@@H]2O[C@H](CO)[C@@H](O)[C@H]2O)c1O` [Mizoribine], the inhibition at 250 µM in test [1] and in test [2] was < 10% each time. Also, the “% inhibition at 250 μM against UNH” value in test [3] is on record as “NM (Not measurable (percent inhibition < 10%))”.

As to `NC(=O)c1ncn([C@@H]2O[C@H](CO)[C@@H](O)[C@H]2O)n1` [Ribavirin], the figures for the IC50 in test [1] (setting [5]) and in test [1] (setting [6]) were 9 ± 3.3 µM and 8.6 ± 4.4 µM, respectively. Further, in test [1] (screen of NIH Clinical Collection, 50 μM compound, 100 μM adenosine, 40 min), the “GACNH inhibition in screen” value is “significant inhibition”. Moreover, the inhibition at 250 µM in test [2] came out at 83%. For the same molecule, the “% inhibition at 250 μM against UNH” value in test [3] is 58%.

`N=C(N)c1ncn([C@@H]2O[C@H](CO)[C@@H](O)[C@H]2O)n1` [Viramidine]: the IC50 in test [1] (setting [6]) was 1.1 ± 0.6 µM; in test [2], 0.12 ± 0.03 µM. In test [1] (setting [7]), the “enhancement of potency against GACNH relative to ribavirin” value is “about 10 fold”. For the same molecule, the “enhancement of potency against AGNH relative to ribavirin” value in test [2] (setting [7]) is reported as “more than 100 fold”. In addition, in test [2] (from IC50 values), the “selectivity toward AGNH over GACNH” value is listed as 10 fold. Moreover, the “% inhibition at 250 μM against UNH” value in test [3] is reported as 55%.

Turning to `COc1ccc2[nH]c([S+]([O-])Cc3ncc(C)c(OC)c3C)nc2c1` (centres unmarked) [omeprazole], in test [4], the “inhibition of UNH (earlier screen)” value is listed as “potent inhibitors”.

Regarding `COc1ccnc(C[S+]([O-])c2nc3ccc(OC(F)F)cc3[nH]2)c1OC` (centres unmarked) [pantoprazole], the “inhibition of UNH (earlier screen)” value in test [4] was “potent inhibitors”.

Turning to `COCCCOc1ccnc(C[S+]([O-])c2nc3ccccc3[nH]2)c1C` (centres unmarked) [rabeprazole], the “inhibition of UNH (earlier screen)” value in test [4] was “potent inhibitors”.

In general, IC50 refers to the concentration needed to halve the response being measured. The term inhibition denotes the relative decrease from the control value, in per cent. A word on the % inhibition: it is how much of the control response was suppressed. A higher % inhibition goes with a strong effect.
